Patent US20060148776A1, “Drug formulations having long and medium chain triglycerides” (Conforma Therapeutics Corporation, priority 2003, published 2006)

Assays:
[1] = Characterisation and storage stability of 17-AAG emulsion (droplet size, drug load, degradants); type: physicochemical
Procedure: EDTA (disodium, dihydrate, USP), sucrose, and water for injection (WFI) are weighed into a 5 L polypropylene beaker and stirred until the solids are dissolved. The aqueous phase is then added to the oil phase and thorough mixing effected using a high-speed emulsifier equipped with an emulsion head at 5000 RPM until the oil adhering to the surface is “stripped off.” Shearing rate is then increased to 10000 RPM for 2-5 minutes to obtain a uniform primary emulsion. Laser light scattering (LLS) may be used to measure the average droplet size, and the solution may further be checked, e.g., under an optical microscope to determine the relative presence or absence of crystals and solids.
The emulsion pH is adjusted to 6.0±0.2 with 0.2N NaOH. The primary emulsion is then passed through a Model 11OS microfluidizer (Microfluidics Inc., Newton, Mass., USA) operating at static pressure of about 110 psi (operating pressure of 60-95 psi) with a 75-micron emulsion interaction chamber (F20Y) for 6-8 passages until the average droplet size is ≦190 nm. LLS may be used following the individual passages to evaluate progress. The solution may further be checked for the presence of crystals using polarized light under an optical microscope.

[2] = daily 1-hour infusion for 5 days every three weeks; cited from earlier work

C=CCNC1=C2CC(C)CC(OC)C(O)C(C)/C=C(\C)C(OC(N)=O)C(OC)/C=C\C=C(/C)C(=O)NC(=CC1=O)C2=O (stereo not shown) [Compound 17-AAG, 17-allylaminogeldanamycin]
concentration achieved in the oil phase alone ([1]; oil phase alone): 20000 to 30000 µg/mL
time until degradants of 17-AAG are seen ([1]; stored at 40° C.): approximately 2 weeks
concentration achieved overall ([1]; whole emulsion): ≤ 3000 µg/mL
maximum tolerated dose (MTD) [2]: 40 mg/m^2
